Marks after values point to notes of the source that are not given here.
Assays:
PSE-2 [1] = target: T1, PSE-2 (Pseudomonas aeruginosa, UniProt P14489); test: 6-well visual test with nitrocefin; conditions: 3 minutes, room temperature
TEM-2 beta-lactamase = TEM-2 beta-lactamase (Escherichia coli, UniProt P62593, Q37K); type: biochemical, E. coli C9 RP4; conditions: from kinetics of nitrocefin cleavage
K17 = test: Competitive assay with nitrocefin (RSAI); type: biochemical, Klebsiella 17
PSE-1 [2] = target: T2, PSE-1 (Pseudomonas aeruginosa, UniProt Q03170); test: Competitive assay with nitrocefin (RSAI); type: biochemical, Ps.aerug. 1937E; parameters: Normally, therefore, the beta-lactamase has to be extracted from the cells for the purpose of the present invention; endogenous in cells
HMS-1 [3] = test: Competitive assay with nitrocefin (RSAI); type: biochemical, E. coli 1946
TEM-1 = TEM-1 (Escherichia coli, UniProt P62593); test: Competitive assay with nitrocefin (RSAI); type: biochemical, E. coli 2136E; parameters: the beta-lactamase has to be extracted from the cells for the purpose of the present invention; made in house; host or cells: E. coli 2136E (plasmid-bearing strain; crude cell extract)
PSE-4 [4] = target: T3, PSE-4 (Pseudomonas aeruginosa, UniProt P16897); test: 6-well visual test with nitrocefin; conditions: 3 minutes, room temperature
OXA-2 [5] = target: T4, OXA-2 (Escherichia coli, UniProt P0A1V9); test: 6-well visual test with nitrocefin; conditions: 3 minutes, room temperature
[6] = target: T5, Chromosomal, constitutive beta-lactamase enzyme (Enterobacter cloacae, UniProt P05364); test: Competitive assay with nitrocefin (RSAI); type: biochemical, E. cloacae
T5 construct: Normally, therefore, the beta-lactamase has to be extracted from the cells for the purpose of the present invention; endogenous in cells

PSE-3 [7] = test: 6-well visual test with nitrocefin; conditions: 3 minutes, room temperature
PSE-1 [8] = target: T2, PSE-1; test: 6-well visual test with nitrocefin; conditions: 3 minutes, room temperature
E. cloacae = E. cloacae (Enterobacter cloacae, UniProt P05364); test: 6-well visual test with nitrocefin; conditions: 3 minutes, room temperature
TEM-2 [9] = target: T6, TEM-2 (Escherichia coli, UniProt P62593, Q37K); test: Competitive assay with nitrocefin (RSAI); type: biochemical, E. coli 1725E
OXA-2 [10] = target: T4, OXA-2; test: Competitive assay with nitrocefin (RSAI); type: biochemical, E. coli R46; parameters: the beta-lactamase has to be extracted from the cells for the purpose of the present invention; made in house; host or cells: E. coli carrying R46 according to the earlier reading (crude cell extract)
PSE-2 [11] = target: T1, PSE-2; test: Competitive assay with nitrocefin (RSAI); type: biochemical, Ps.aerug. 1973E; parameters: Normally, therefore, the beta-lactamase has to be extracted from the cells for the purpose of the present invention; endogenous in cells
OXA-1 = OXA-1 (Escherichia coli, UniProt P13661); test: 6-well visual test with nitrocefin; conditions: 3 minutes, room temperature
SHV-1 = SHV-1 (Escherichia coli, UniProt P0AD63); test: 6-well visual test with nitrocefin; conditions: 3 minutes, room temperature
PSE-3 [12] = test: Competitive assay with nitrocefin (RSAI); type: biochemical, Ps.aerug. 1920E
[13] = target: Chromosomal, hyper-induced beta-lactamase enzyme (Escherichia coli, UniProt P00811); test: Competitive assay with nitrocefin (RSAI); type: biochemical, E. coli SNU35; parameters: Normally, therefore, the beta-lactamase has to be extracted from the cells for the purpose of the present invention; endogenous in cells; host or cells: E. coli SNU 35 (artificially produced strain)
PSE-4 [14] = target: T3, PSE-4; test: Competitive assay with nitrocefin (RSAI); type: biochemical, Ps.aerug. 1559E; parameters: Normally, therefore, the beta-lactamase has to be extracted from the cells for the purpose of the present invention; endogenous in cells
Ps +AMP (Chromosomal) = Ps +AMP (Chromosomal) (Pseudomonas aeruginosa, UniProt P24735); test: 6-well visual test with nitrocefin; conditions: 3 minutes, room temperature
K1073 = test: Competitive assay with nitrocefin (RSAI); type: biochemical, Klebsiella 1073
K10317 = test: Competitive assay with nitrocefin (RSAI); type: biochemical, K.aerog. 10317
HMS-1 [15] = test: 6-well visual test with nitrocefin; conditions: 3 minutes, room temperature
TEM-2 [16] = target: T6, TEM-2; test: 6-well visual test with nitrocefin; conditions: 3 minutes, room temperature
[17] = well A: Cefoxitin 20:1 to nitrocefin
[18] = well E: Cefoxitin 200:1 to nitrocefin

T3 sequence (P16897 18-288): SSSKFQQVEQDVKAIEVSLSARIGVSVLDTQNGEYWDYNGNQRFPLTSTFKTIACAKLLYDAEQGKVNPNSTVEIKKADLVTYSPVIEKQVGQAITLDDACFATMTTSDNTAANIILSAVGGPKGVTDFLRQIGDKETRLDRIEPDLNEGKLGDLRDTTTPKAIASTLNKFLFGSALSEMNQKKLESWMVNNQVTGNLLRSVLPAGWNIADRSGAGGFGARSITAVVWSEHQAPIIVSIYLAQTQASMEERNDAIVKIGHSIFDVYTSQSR
T1 sequence (P14489 20-266): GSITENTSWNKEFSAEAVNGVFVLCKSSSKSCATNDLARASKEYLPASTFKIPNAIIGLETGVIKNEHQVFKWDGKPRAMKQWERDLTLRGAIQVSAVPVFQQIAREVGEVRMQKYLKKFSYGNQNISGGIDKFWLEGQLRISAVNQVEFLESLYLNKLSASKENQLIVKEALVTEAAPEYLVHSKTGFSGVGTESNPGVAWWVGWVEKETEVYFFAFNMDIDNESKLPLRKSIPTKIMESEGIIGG
T2 sequence (Q03170 18-288): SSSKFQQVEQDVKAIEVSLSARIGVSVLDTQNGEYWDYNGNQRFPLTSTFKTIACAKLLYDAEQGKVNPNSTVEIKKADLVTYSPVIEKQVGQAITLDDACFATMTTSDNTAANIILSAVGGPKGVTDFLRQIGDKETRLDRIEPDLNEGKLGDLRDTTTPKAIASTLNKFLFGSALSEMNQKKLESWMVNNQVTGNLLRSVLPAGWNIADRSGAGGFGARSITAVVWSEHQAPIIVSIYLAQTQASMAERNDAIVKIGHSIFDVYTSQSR
T4 sequence (P0A1V9 22-275): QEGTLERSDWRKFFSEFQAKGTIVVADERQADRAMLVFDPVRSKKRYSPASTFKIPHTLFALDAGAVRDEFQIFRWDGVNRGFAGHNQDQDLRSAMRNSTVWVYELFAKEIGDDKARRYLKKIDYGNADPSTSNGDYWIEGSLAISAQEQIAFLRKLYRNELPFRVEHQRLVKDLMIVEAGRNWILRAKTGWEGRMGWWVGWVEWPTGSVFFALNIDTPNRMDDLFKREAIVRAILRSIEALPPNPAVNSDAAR
E. cloacae, sequence (P05364 21-381): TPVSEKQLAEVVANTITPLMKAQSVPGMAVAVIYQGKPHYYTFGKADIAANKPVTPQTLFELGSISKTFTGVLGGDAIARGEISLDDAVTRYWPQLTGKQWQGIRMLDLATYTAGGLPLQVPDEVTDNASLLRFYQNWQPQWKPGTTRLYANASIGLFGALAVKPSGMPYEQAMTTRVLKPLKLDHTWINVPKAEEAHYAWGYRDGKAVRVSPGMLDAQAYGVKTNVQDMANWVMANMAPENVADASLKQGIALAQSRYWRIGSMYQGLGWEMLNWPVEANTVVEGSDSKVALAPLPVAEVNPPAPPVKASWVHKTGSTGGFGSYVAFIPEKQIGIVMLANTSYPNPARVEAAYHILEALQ
SHV-1, sequence (P0AD63 22-286): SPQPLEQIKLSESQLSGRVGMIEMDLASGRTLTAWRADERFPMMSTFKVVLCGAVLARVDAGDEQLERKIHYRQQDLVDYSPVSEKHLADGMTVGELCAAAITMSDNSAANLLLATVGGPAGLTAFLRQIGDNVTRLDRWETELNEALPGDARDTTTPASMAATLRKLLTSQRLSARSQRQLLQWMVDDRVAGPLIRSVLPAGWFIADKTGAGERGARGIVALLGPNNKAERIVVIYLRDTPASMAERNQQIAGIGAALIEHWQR
OXA-1, sequence (P13661 26-276): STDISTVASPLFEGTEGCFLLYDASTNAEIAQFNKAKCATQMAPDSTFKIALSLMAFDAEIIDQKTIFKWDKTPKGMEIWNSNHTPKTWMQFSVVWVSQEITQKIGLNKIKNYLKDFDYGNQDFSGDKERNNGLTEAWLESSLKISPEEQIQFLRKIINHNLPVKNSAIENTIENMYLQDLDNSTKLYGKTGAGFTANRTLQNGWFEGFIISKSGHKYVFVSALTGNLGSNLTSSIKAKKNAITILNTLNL
Ps +AMP (Chromosomal), sequence (P24735 27-397): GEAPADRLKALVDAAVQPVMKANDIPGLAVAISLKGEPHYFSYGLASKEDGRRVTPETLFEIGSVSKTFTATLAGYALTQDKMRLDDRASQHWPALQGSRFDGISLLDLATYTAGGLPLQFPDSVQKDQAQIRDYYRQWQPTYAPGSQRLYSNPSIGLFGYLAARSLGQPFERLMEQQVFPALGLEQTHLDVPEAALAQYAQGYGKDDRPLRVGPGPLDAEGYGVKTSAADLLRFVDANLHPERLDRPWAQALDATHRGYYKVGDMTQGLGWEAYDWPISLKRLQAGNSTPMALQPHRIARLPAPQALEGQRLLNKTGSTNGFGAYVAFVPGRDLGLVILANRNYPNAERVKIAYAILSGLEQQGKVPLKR
Chromosomal, hyper-induced beta-lactamase enzyme, sequence (P00811 20-377): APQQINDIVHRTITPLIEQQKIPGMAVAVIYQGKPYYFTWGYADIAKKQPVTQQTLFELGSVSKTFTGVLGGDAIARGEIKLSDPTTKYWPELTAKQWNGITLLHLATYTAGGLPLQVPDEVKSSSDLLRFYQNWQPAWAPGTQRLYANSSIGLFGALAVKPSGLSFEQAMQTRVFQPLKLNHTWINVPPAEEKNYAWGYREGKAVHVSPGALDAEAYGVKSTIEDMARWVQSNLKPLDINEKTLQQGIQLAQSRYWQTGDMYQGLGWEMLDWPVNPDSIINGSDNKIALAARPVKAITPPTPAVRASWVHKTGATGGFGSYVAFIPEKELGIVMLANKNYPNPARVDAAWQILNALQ
T5 sequence (P05364 21-381): as the sequence (P05364 21-381) above

SMILES: CO[C@@]1(NC(=O)Cc2cccs2)C(=O)N2C(C(=O)O)=C(COC(N)=O)CS[C@@H]21 [Cefoxi-tin, cefoxitin]
- Score in 6-well visual test (PSE-2 [1]; [17]): +
- Score in 6-well visual test (PSE-2 [1]; [18]): -
- nature of the binding to the enzyme (TEM-2 beta-lactamase): irreversible binding
- RSAI (K17): 1.6
- RSAI (PSE-1 [2]): 20
- RSAI (HMS-1 [3]): 60
- RSAI (TEM-1): 60*
- Score in 6-well visual test (PSE-4 [4]; [17]): +
- Score in 6-well visual test (PSE-4 [4]; [18]): -
- Score in 6-well visual test (OXA-2 [5]; [17]): -
- Score in 6-well visual test (OXA-2 [5]; [18]): -
- RSAI [6]: 0.01
- Score in 6-well visual test (PSE-3 [7]; [17]): +
- Score in 6-well visual test (PSE-3 [7]; [18]): -
- Score in 6-well visual test (PSE-1 [8]; [17]): ++
- Score in 6-well visual test (PSE-1 [8]; [18]): -
- Score in 6-well visual test (E. cloacae; [17]): -
- Score in 6-well visual test (E. cloacae; [18]): -
- RSAI (TEM-2 [9]): 60*
- RSAI (OXA-2 [10]): 0.2
- RSAI (PSE-2 [11]): 24
- Score in 6-well visual test (OXA-1; [17]): ++
- Score in 6-well visual test (OXA-1; [18]): -
- Score in 6-well visual test (SHV-1; [17]): ++
- Score in 6-well visual test (SHV-1; [18]): +
- RSAI (PSE-3 [12]): 11.4
- RSAI [13]: 0.0008
- RSAI (PSE-4 [14]): 27
- Score in 6-well visual test (Ps +AMP (Chromosomal); [17]): -
- Score in 6-well visual test (Ps +AMP (Chromosomal); [18]): -
- RSAI (K1073): 1020
- RSAI (K10317): 350*
- Score in 6-well visual test (HMS-1 [15]; [17]): ++
- Score in 6-well visual test (HMS-1 [15]; [18]): -
- Score in 6-well visual test (TEM-2 [16]; [17]): ++
- Score in 6-well visual test (TEM-2 [16]; [18]): -

From EP0059645A1, “Method and kit for identification of beta-lactamases” (NATIONAL RESEARCH DEVELOPMENT CORPORATION, priority 1981, dated 1982)
